Data on 2 compounds can be found in patent US5336769A, “Xanthine derivatives” (Kyowa Hakko Kogyo Co., Ltd., priority 1992, dated 1994).

Data set [1] concerns scopolamine-induced amnesia models. The data set can be described thus: Anti-dementia effect in scopolamine-induced amnesia models, step-through type passive avoidance (recall trial). The class given is in vivo, Male Wistar rats. The settings on record: oral, scopolamine 1 mg/kg i.p., 24 h after acquisition trial. On the procedure: The effect of Compound (I) on dementia was determined by scopolamine-induced amnesia models (Basic, Clinical, and Therapeutic Aspects of Alzheimer's and Parkinson's Diseases: Vol. 2; T. Nagatsu, et al. edt; pp449; Plenum Press New York; 1990).
[…] The test was performed with a step-through type passive avoidance apparatus (the bright and dark box).
The bright and dark box was made up of a bright compartment (25×25×25 cm) lighted by 4W white fluorescent light and a dark compartment (25×25×25 cm). […] In order to give a foot shock, the electric current (2 mA: 2 sec) may be passed through the grid floor of the dark compartment.
The compound to be tested was suspended in 0.3% aqueous solution of carboxymethyl cellulose (CMC) and the suspension was orally administered 60 minutes before the acquisition trial. Only 0.3% CMC was given to the control group.
Amnesia-inducing treatment was carried out by intraperitoneally administering 1 mg/kg of scopolamine 30 minutes before the following acquisition trial.
The training for acquisition of learning (acquisition trial) was carried out. The rat was introduced into the bright compartment, and after 5 to 10 seconds, the guillotine door was opened. The rat in the bright compartment rapidly moved into the dark compartment. As soon as the whole body of the rat entered the dark compartment, the guillotine door was closed and an electric current of 2 mA was passed through the grid floor for two seconds (foot shock). Immediately after the foot shock, the rat was taken out of the dark compartment.
The test trial for observing the retention and recall of the memory (recall trial) was carried out as follows. Twenty-four hours after the acquisition trial, the rat was placed in the bright compartment and the guillotine door was opened. The length of time before the rat entered the dark compartment (latency) was measured. The latency was measured up to 600 seconds and the latency longer than 600 seconds was recorded as 600 seconds.
In the experiment, the amnesia control group had undergone the amnesia-inducing treatment and the normal control group had not undergone the amnesia-inducing treatment.
The anti-dementia effect was evaluated by Mann Whitney U-test to determine whether there was a significant difference in latency between the test compound treated group and the amnesia control group.

Another data set relates to dd strain male mice. Nature of the data set: Acute Toxicity Test, minimum lethal dose (MLD). The class given is in vivo. The conditions noted are these: oral, mortality 7 days after administration. From the text: Compounds 1 and 5 were orally administered to dd strain male mice (body weight: 20±1 g, 3 mice/group). The mortality was observed 7 days after the administration to determine the minimum lethal dose (MLD).

Regarding `CCCn1c(=O)c2nc(C3CCCC3)[nH]c2n(CCc2ccc(NC(C)=O)cc2)c1=O` [Compound 1, 3-(4-acetylaminophenethyl)-8-cyclopentyl 1-propylxanthine], the “Recall trial mean reaction latency” value in data set [1] (0.02 mg/Kg, 17 animals) was 137.3 ± 44.5 s; in data set [1] (0.08 mg/Kg, 18 animals), 174.8 ± 56.1 s; in data set [1] (0.31 mg/Kg, 18 animals), 130.4 ± 38.5 s; in data set [1] (1.25 mg/Kg, 17 animals) it was 170.3 ± 50.4 s; in data set [1] (5.0 mg/Kg, 18 animals) it was 187.2 ± 50.2 s; in data set [1] (20.0 mg/Kg, 17 animals), 116.2 ± 43.4 s. For the same compound, in the data set on dd strain male mice, the “minimum lethal dose (MLD)” value is > 300 mg/kg.
As for `CCCn1c(=O)c2[nH]c(C3CCCC3)nc2n(CCc2ccc(NC(=O)C3CCCC3)cc2)c1=O` [Compound 5, 3-[4-(cyclopentanecarbonylamino)-phenethyl]-8-cyclopentyl-1-propylxanthine], the “minimum lethal dose (MLD)” value with dd strain male mice is > 300 mg/kg.
